Assay [1] has as its system MRSA Staphylococcus aureus. Description: Anti-adhesion assay, MRSA Staphylococcus aureus. It counts as cell-based. The conditions noted are these: for ICMAX / ICMAX: level of maximal inhibition (ICxx): anti-adhesion, MRSA S. aureus, cell reads 'ICxx - concentration'.
Another assay concerns Colletotrichum acutatum. Description: Petri dish assay for activity against Colletotrichum acutatum (spore adhesion). The note with it: for Inhibition of adhesion of spores to polystyrene surfaces, Colletotrichum acutatum: compound tested at 0.5%.
For the next assay, the system named is Dengue 2. Nature of the assay: Anti-infection (adhesion) of viruses: Dengue 2, focus forming unit (FFU) reduction assay on LLCMK-2 cells. The conditions noted are these: FIG. 6. Format: cell-based, Dengue virus (DENV-2 strain NG-2). The protocol:
(§1) DENV-1 strain HI-1, DENV-2 strain NG-2, DENV-3 strain H-78, and DENV-4 strain H-42 were obtained from R. Tesh at the World Health Organization Arbovirus Reference Laboratory at the University of Texas at Galveston. Viruses were propagated in the African green monkey kidney epithelial cell line, LLCMK-2, a gift of K. Olsen at Colorado State University. LLCMK-2 cells were grown in DMEM with 10% (v/v) FBS, 2 mM Glutamax, 100 U/ml penicillin G, 100 μg/ml streptomycin and 0.25 μg/ml amphotericin B, at 37° C. with 5% (V/V) CO2.
LLCMK-2 target cells were seeded at a density of 1×10^5 cells in each well of a 6-well plate 24 h prior to infection. Approximately 200 FFU of virus were incubated with or without chemistries in serum-free DMEM for 1 h at rt. […] Virus foci were detected using supernatant from mouse anti-DENV hybridoma E60 (obtained from M. Diamond at Washington University) followed by horseradish peroxidase-conjugated goat anti-mouse immunoglobulin (Pierce, Rockford, Ill.) and developed using AEC chromogen substrate (Dako, Carpinteria, Calif.). Results were expressed as the average of at least two independent trials with three replicates in each trial.

A further assay relates to P. aerug. Nature of the assay: Library screening against P. aeruginosa (IC50). Format: cell-based, Pseudomonas aeruginosa. The conditions noted are these: Table 3.
The test system of a further assay is Dengue virus. Description: Direct binding assay (DART TOF-MS), Dengue virus. The conditions noted are these: FIG. 6.
Text: The virus particles were collected and fixed in 100% (USP) ethanol prior to DART TOF-MS analysis. The closed end of a borosilicate glass capillary tube was immersed in the virion solution and passed through the DART He plasma to obtain mass spectra of virion surface-bound chemistries. […] The same conditions were used to assess the binding of composition here to bacterial species. • 1. […] Viruses and Cells
as §1

In assay [2] the test system is Staphylococcus epidermidis. Nature of the assay: 96-well plate assay for activity against Staphylococcus epidermidis (adhesion, Syto 13). The conditions noted are these: compound tested at 0.5%.

SMILES strings stand for the structures.

Turning to `O=C(O)/C=C/c1ccc(OS(=O)(=O)O)cc1` [Zosteric Acid, reference compound], in assay [1], the “ICMAX” value came out at 90 µM and the “ICMAX: level of maximal inhibition (ICxx)” value was “IC100”.

For `CCN(CCOC(=O)/C=C/c1ccc(O)cc1)Cc1cc(Cl)ccc1O` [Compound I], the “IC50 (% wt/vol) C. acut.” value in the assay on Colletotrichum acutatum (Table 3) was 0.004 % wt/vol. Also, the concentration for half-maximal inhibition (IC50) in assay [1] (Staphylococcus aureus, MRSA) came to 82 µM. Moreover, in assay [1], the “ICMAX” value was 120 µM and the “ICMAX: level of maximal inhibition (ICxx)” value is recorded as “IC70”. Further, the “Dengue infection when compound is bound” value with Dengue 2 is listed as “inhibited”. The “IC50 (% wt/vol) P. aerug.” value in the assay with P. aerug. amounted to 0.001 % wt/vol. The “direct binding to Dengue virus (DART-MS)” value in the assay with Dengue virus was “direct binding”.

In the case of `CNC(=O)C(Cc1ccc(OS(C)(=O)=O)cc1)NC(=O)COCC(=O)Nc1cccc(OS(C)(=O)=O)c1` (stereo not drawn) [Compound A02], the “Inhibition of adhesion of spores to polystyrene surfaces, Colletotrichum acutatum” value with Colletotrichum acutatum is given as −12%. The “Inhibition of adhesion of cells to polystyrene surfaces, Staphylococcus epidermidis” value in assay [2] came out at 22%.

Regarding `CNC(=O)C(Cc1ccc(OS(=O)(=O)C(F)(F)F)cc1)NC(=O)COCC(=O)Nc1cccc(OS(=O)(=O)C(F)(F)F)c1` (stereo not drawn) [Compound B02], in the assay on Colletotrichum acutatum, the “Inhibition of adhesion of spores to polystyrene surfaces, Colletotrichum acutatum” value is reported as −16%.

The values above are taken from patent publication US20090124690A1, “Generation of Combinatorial Synthetic Libraries and Screening for Novel Proadhesins and Nonadhesins” (priority 2000, published 2009).
